The values below come from patent publication US8093282B2, “Therapeutic N-aryl or N-heteroaryl pyrazolidine and pyrazolidinone derivatives” (Allergan, Inc., priority 2008, dated 2012).

SMILES strings stand for the structures.

The test system of the assay is lashes and adjacent hairs of the treated eye. The experiment in a line: Eyelash / hair growth observed in glaucoma patients treated in one eye. Particulars: glaucoma patient treated in only one eye. It is filed as in vivo, human. The text has this:
In the course of treating patients having glaucoma, treatment may only be appropriate in one eye. […] The lash appearance on the lids of the treated eyes would have appeared quite attractive if it represented a bilateral phenomenon. As a result of its asymmetric nature, the long lashes on one side could be construed as disturbing from a cosmetic standpoint. A systemic examination was preformed as a result of the asymmetric phenomenon. It soon became apparent that this altered appearance was not an isolated finding. […] Definite differences could be identified to varying degrees in the lashes and adjacent hairs of all patients who were taking the drug on a unilateral basis for longer than 6 months.
The changes in the lashes were apparent on gross inspection in several patients once attention was focused on the issue. In those with light colored hair and lashes, the differences were only seen easily with the aid of the high magnification and lighting capabilities of the slit lamp biomicroscope. In the course of glaucoma follow-up examination, attention is generally immediately focused on the eye itself. As a result of the high power magnification needed only one eye is seen at a time and the eye is seen at a high enough power that the lashes are not in focus. […]

With `CCNC(=O)CCC/C=C\C[C@@H]1[C@@H](/C=C/[C@@H](O)CCc2ccccc2)[C@H](O)C[C@@H]1O` [bimatoprost], the “lash appearance in the treated eye versus the non-treated eye” value is “longer, thicker, and fuller”.
